Reference: patent US12331022B2, “Spiropiperidine allosteric modulators of nicotinic acetylcholine receptors” (Merck Sharp & Dohme LLC, priority 2019, dated 2025)
Where two headings read alike, the source gives them in different places.

Biological target: T1, human α7 nAChR (Homo sapiens, UniProt P36544)
T1 construct: host or cells: HEK
Experiment: Automated patch-clamp electrophysiology functional assay (Assay A)
Format: cell-based
Conditions: HEK cell line stably expressing human RIC-3 and human α7, IonFlux HT whole-cell population patch, with or without 40 μM acetylcholine
Outline: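 Whole-cell population patch clamp at −60 mV, room temperature, on HEK cells stably co-expressing human α7 and RIC-3; compounds tested at three ascending concentrations per recording, alone (agonism) or with 40 μM acetylcholine (potentiation). Currents normalised to an initial 1 s 40 μM acetylcholine response; EC50 from concentration series.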

T1 sequence (P36544 23-502): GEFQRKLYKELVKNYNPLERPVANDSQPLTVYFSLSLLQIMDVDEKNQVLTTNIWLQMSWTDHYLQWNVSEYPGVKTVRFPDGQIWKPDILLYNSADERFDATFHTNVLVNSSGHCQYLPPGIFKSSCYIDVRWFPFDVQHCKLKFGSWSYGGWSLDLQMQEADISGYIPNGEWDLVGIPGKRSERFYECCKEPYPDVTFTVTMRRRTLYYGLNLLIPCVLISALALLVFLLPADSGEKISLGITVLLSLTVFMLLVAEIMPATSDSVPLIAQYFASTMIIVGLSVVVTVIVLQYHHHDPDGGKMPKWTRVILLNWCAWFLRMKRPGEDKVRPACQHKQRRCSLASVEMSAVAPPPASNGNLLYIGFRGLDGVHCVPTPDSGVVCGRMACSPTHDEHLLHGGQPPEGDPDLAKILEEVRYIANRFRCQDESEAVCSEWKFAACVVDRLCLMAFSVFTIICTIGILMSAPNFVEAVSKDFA

| SMILES | EC50 (read-out: α7 nAChR EC50) | EC50 (read-out: α7 nAChR Potency) |
| --- | --- | --- |
| NS(=O)(=O)N1CCC2(CC1)CC2CSc1ccc(C(F)(F)F)cc1 (racemic) [Example A43, 1-({[4-(trifluoromethyl)phenyl]sulfanyl}methyl)-6-azaspiro[2.5]octane-6-sulfonamide] | 1400 nM | 500 to 5000 nM |
| NS(=O)(=O)N1CCC2(CC1)C[C@@H]2COc1cccc(OCC2CC2)n1 [Example A18, (1S)-1-({[6-(cyclopropylmethoxy)pyridin-2-yl]oxy}methyl)-6-azaspiro[2.5]octane-6-sulfonamide] | 300 nM | 100 to 500 nM |
| COc1cc(OC[C@@H]2CC23CCN(S(N)(=O)=O)CC3)ccc1F [Example A4, (1R)-1-[(4-fluoro-3-methoxyphenoxy)methyl]-6-azaspiro[2.5]octane-6-sulfonamide] |  | 500 to 5000 nM |
| NS(=O)(=O)N1CCC2(CC1)C[C@@H]2COc1cccc(OC(F)(F)F)c1 [Example A25, (1S)-1-{[3-(trifluoromethoxy)phenoxy]methyl}-6-azaspiro[2.5]octane-6-sulfonamide] | 1900 nM | 500 to 5000 nM |

Next, values leading:

| EC50 (read-out: α7 nAChR EC50) | EC50 (read-out: α7 nAChR Potency) | SMILES |
| --- | --- | --- |
| 450 nM | 100 to 500 nM | CCOc1cccc(OC[C@@H]2CC23CCN(S(N)(=O)=O)CC3)n1 [Example A54, (1R)-1-{[(6-ethoxypyridin-2-yl)oxy]methyl}-6-azaspiro[2.5]octane-6-sulfonamide] |
| 1800 nM | 500 to 5000 nM | Cc1cc(C)n(-c2cccc(OC[C@H]3CC34CCN(S(N)(=O)=O)CC4)n2)n1 [Example A20, (1S)-1-({[6-(3,5-dimethyl-1H-pyrazol-1-yl)pyridin-2-yl]oxy}methyl)-6-azaspiro[2.5]octane-6-sulfonamide] |
|  | 500 to 5000 nM | NS(=O)(=O)N1CCC2(CC1)C[C@H]2COc1cccc(-c2ccncc2)n1 [Example A58, (1R)-1-[(2,4′-bipyridin-6-yloxy)methyl]-6-azaspiro[2.5]octane-6-sulfonamide] |
